Measured values as given in patent publication US9309314B2, “Polypeptides, nucleic acids and uses thereof” (AGENCY FOR SCIENCE, TECHNOLOGY AND RESEARCH (A*STAR), priority 2013, dated 2016).
“Also recorded” adds a separate entry of the source.

Experiments:
atherosclerosis = experiment: Atherosclerosis (APELIN publication repeated with ELABELA); details: mouse, in vivo
Excerpt: J Clin Invest 2008; 118:3343-54.
The experiments described in the above publication are repeated, with the replacement of APELIN with ELABELA.

hESCs [1] = experiment: Directed endoderm differentiation of hESCs (SOX17+ cell count); format: cell-based, human; details: 2.5 uM ELA peptide up to day 3
Description: Shef4TetR5-shELA and Shef4TetR5-shβ2M cells were cultured in the presence (shELA and shβ2M respectively) or absence (Control) of 20 ng/ml doxycycline for 1 passage (4 days) and dissociated with Accutase. […] 24 hours later, the media was changed to Endo differentiation media 1 [RPMI 1640 (Gibco), 1X B-27 supplement (Invitrogen), 50 ng/ml of Activin A (R&D Systems), 25 ng/ml BMP4 (R&D Systems) and 50 ng/ml bFGF (Invitrogen)] for 3 days. On day 3, the media was changed to Endo differentiation media 2 (RPMI 1640, B27, 50 ng/ml Activin) for 2 more days of culture. Rescue experiments were performed by adding 2.5 uM of ELA peptide to Shef4TetR5-shELA concurrently with doxycycline up to day 3, when the ELA peptide is no longer necessary as judged by downregulation of endogenous ELA.
On day 5, cells were fixed with 4% paraformaldehyde and stained with α SOX17 (AF1924, R&D Systems) and DAPI. For each well, three different randomly selected fields were imaged and the number of nuclei staining positive of SOX17 and DAPI were counted using a custom macro in ImageJ. A minimum of two wells per condition was used for each experiment, and a minimum of two independent experiments were performed to generate the results.

hECs = experiment: Growth and survival of hECs with recombinant ELA; format: cell-based, human; details: multipotent hECs
Description: (§1) Primary human fibroblasts, SW1353 chondrosarcoma (ATCC) and NTERA2 hECs (a gift from Barbara Knowles and Davor Solter) were grown in Dulbecco's modified Eagle's medium (DMEM) with 10% FBS (Hyclone), 2 mM GlutaMAX™ (Invitrogen) and 1 mM sodium pyruvate.
(§2) For xCELLigence real time growth assays, 4000 cells were plated per well of an E-plate (ACEA Biosciences) with media changes every 48 hours.
(§3) Recombinant ELA was added at 2.5 uM (or 10 μg/ml). Cell cycle studies were performed with Click-iT EDU staining kit (Invitrogen) and by performing a double thymidine block (2.5 mM thymidine; 16 hour block, 8 hour release, 16 hour block) followed by DAPI staining for DNA content at the indicated times following release.

hESCs [2] = experiment: Embryoid body differentiation of ELA-treated hESCs (qPCR); format: cell-based, human
Description: Embryoid body differentiation was performed by plating 1 million cells per well of an Aggrewell 400 plate in Aggrewell Medium (Stem Cell Technologies) followed by harvesting and replating into low-adhesion plates (Corning).
(§4) After the indicated time periods, embryoid bodies were harvested and RNA extracted using RNeasy kit […]. qPCR reactions were carried out using either Universal FastStart SYBR Green Mastermix (Roche) or using the Universal Probe Library system (Roche) in tandem with Taqman Fast Mastermix (Invitrogen). Primer sequences can be found in Table E1.

SSEA3 and TRA-1-60 = experiment: FACs of stem cell surface markers in ELA-treated hESCs; format: cell-based, human; details: hESCs treated with recombinant ELA
heart failure = experiment: Heart failure (APELIN publications repeated with ELABELA); details: in vivo
Excerpt: Nature 2012 Aug. […] J Clin Invest. 2013 Nov. 1.

[3] = tested on: mesendodermal genes including GATA6, GATA4, FOXA2, EOMES and BRA; experiment: qPCR of mesendodermal markers in hESCs; format: cell-based, human
Description: as §4

blood pressure = experiment: Hypertension (APELIN publications repeated with ELABELA); details: in vivo
Excerpt: Regulatory Peptides. 2001; 99(2-3):87-92. • Cheng X, Cheng X S, Pang C C. […] European Journal of Pharmacology. […] Journal of the American College of Cardiology. 2008; 52(11):908-913.

myocardial infarction = experiment: Coronary artery disease / myocardial infarction (APELIN publications repeated with ELABELA); format: in vivo, rat
Excerpt: Peptides 2013; 46:76-82. • Li L, Zeng H, Chen J X. Apelin-13 increases myocardial progenitor cells and improves repair postmyocardial infarction. Am J Physiol Heart Circ Physiol 2012; 303:H605-18. • Pisarenko O I, Serebryakova L I, Pelogeykina Y A, et al. In vivo reduction of reperfusion injury to the heart with apelin-12 peptide in rats. Bull Exp Biol Med 2011; 152:79-82.

other tested cell types = experiment: Cellular uptake of recombinant ELA in other tested cell types; format: cell-based; details: other tested cell types than hESCs
[4] = tested on: primary human fibroblasts; experiment: Growth and survival of primary fibroblasts with recombinant ELA; format: cell-based; details: primary fibroblast cells
Description: as §1, §2, §3

erectile function = experiment: Erectile dysfunction (APELIN publication repeated with ELABELA); details: mouse, in vivo
Excerpt: J Sex Med. 2013 Apr. 11. doi: 10.1111/jsm.12158.

shELA hESCs = experiment: Rescue of growth of shELA hESCs by exogenous peptide; format: cell-based, human; details: addition of recombinant peptide
Description: as §2, §3
To generate stable inducible knockdown of ELA in hESCs, the sequence […] (SEQ ID NO: 132) targeting the 3′UTR of ELA was cloned into pSUPERIOR (Oliogoengine) and nucleofected (Lonza) into Shef4TetR5 hESCs (Zafarana et al., 2009). Neomycin-resistant cells were clonally expanded and assayed for doxycycline (20 ng/ml)-inducible knockdown. Data from one representative clone (Shef4TetR5 shELA) are shown in this paper. Shef4TetR5 shβ2M were derived as previously described (Zafarana et al., 2009). Unless otherwise stated, ELA knockdown was induced on Day −4 with 20 ng/ml doxycycline to generate shELA cells.

[5] = tested on: human chondrosarcoma cell line; experiment: Growth and survival of chondrosarcoma cells with recombinant ELA; format: cell-based; details: unipotent human chondrosarcoma cells
Description: as §1, §2, §3

hESCs [6] = experiment: Uptake of FITC-labeled recombinant ELA by hESCs (immunofluorescence); format: cell-based, human; details: peptide labeled with FITC
[7] = tested on: myocardial ischaemia-reperfusion injury; experiment: Myocardial ischaemia-reperfusion injury (APELIN publications repeated with ELABELA); format: in vivo; details: administered during reperfusion
Excerpt: Peptides 2009; 30:1144-52. • Simpkin J C, Yellon D M, Davidson S M, Lim S Y, Wynne A M, Smith C C. […] Basic Res Cardiol 2007; 102:518-28.

hESCs [8] = experiment: hESC growth assays (cell counts, colony size, xCELLigence real time cell index); format: cell-based, human
Description: Feeder-free hESCs were cultured in clumps in mTSER1 (Stem Cell Technologies) on Matrigel (BD 354277).
hESCs were dissociated into single cells using Accutase (Stem Cell Technologies) and plated in the presence of 10 μM Y-27632 (ROCK inhibitor) for 12 hours (Watanabe et al., 2007).
as §2, §3

[9] = tested on: pulmonary arterial hypertension; experiment: Pulmonary arterial hypertension (APELIN publications repeated with ELABELA); details: in vivo
Excerpt: J Clin Invest 2011; 121:3735-46.
Am J Physiol Heart Circ Physiol 2009; 296:H2007-14.

## QRPVNLTMRRKLRKHNCLQRRCMPLHSRVPFP (listed as Homo sapiens) [ELA, synthetically produced recombinant mature human ELABELA, a 32 amino-acid peptide hormone]
atherosclerosis
  Ang II-mediated increase in atherosclerosis burden: mitigates the Ang II-mediated increase in atherosclerosis burden
  abdominal aortic aneurysm formation and rupture: inhibit abdominal aortic aneurysm formation and rupture
  protection against atherosclerosis: can protect against atherosclerosis
hESCs [1]
  rescue of endoderm differentiation of shELA hESCs: entirely rescued; also recorded: sufficient to rescue
hECs
  pro-growth and survival properties: not seen; also recorded: exerted activity only on hESCs cultures
hESCs [2]
  lineage commitment during embryoid body differentiation: can differentiate into all three germ layers; also recorded: not biased towards mesoderm or endoderm lineages
SSEA3 and TRA-1-60
  levels of cell surface markers SSEA3 and TRA-1-60: do not lose; also recorded: unchanged levels
Heart failure
  protection against heart failure: able to provide protection against heart failure
[3]
  expression of mesendodermal markers: significantly higher levels of mesendodermal markers; also recorded: consistently upregulated
Blood pressure
  blood pressure: causes a reduction in blood pressure
Myocardial infarction; injection
  myocardial infarction size and damage to cardiomyocytes: limit the myocardial infarction size and reduce damage to cardiomyocytes
Myocardial infarction; rat, in vivo
  angiogenesis and cardiac repair postmyocardial infarction: promote angiogenesis and ameliorate cardiac repair postmyocardial infarction
Other tested cell types
  rapid cellular uptake: not in other tested cell types
[4]
  pro-growth and survival properties: not seen; also recorded: exerted activity only on hESCs cultures
Erectile function
  erectile function: significant restoration of erectile function
shELA hESCs
  rescue of the growth of shELA hESCs: sufficient to rescue; also recorded: entirely rescued to normal levels
[5]
  pro-growth and survival properties: not seen; also recorded: exerted activity only on hESCs cultures
hESCs [6]
  uptake by hESCs: rapidly up-taken; also recorded: rapidly taken up
HIV-1
  HIV-1 entry: prevents or slows-down HIV-1 entry
[7]
  infarct size: significantly decrease infarct size
hESCs [8]; FIG. 3C, relative to untreated hESCs
  growth of hESCs by cell numbers: increased growth
hESCs [8]; FIG. 3D, relative to untreated hESCs
  survival of hESCs: increased survival
hESCs [8]; hESCs, endogenous ELA in conditioned media is in the nM range
  concentration range in which the recombinant peptide is bioactive: μM range
[9]
  symptoms of pulmonary arterial hypertension: alleviates symptoms of pulmonary arterial hypertension
